# Paper PMC7778606, “Development of the phenylpyrazolo[3,4-d]pyrimidine-based, insulin-like growth factor receptor/Src/AXL-targeting small molecule kinase inhibitor” (Theranostics, 2021)
# What was measured:
# Assay in all cases: KINOMEscan competition binding assay
# IR = biological target: T1, IR (Homo sapiens, UniProt P06213)
# T1 construct: purchased DiscoverX (KINOMEscan service)
# Procedure: (§1) Kd values were obtained by KINOMEscan from DiscoverX (San Diego, CA, USA). To briefly summarize, Kd was measured by a competition binding assay that quantitatively measures the ability of a compound to compete with an immobilized ligand. […] Dose response curves of 11 points are obtained for Kd values, which are measured in duplicate. See more details in the cited references [39]-[42] and see also at www.discoverx.com.
# [1] = biological target: T2, RSK2(Kin.Dom.1-N-terminal) (Homo sapiens, UniProt P51812); conditions: LL6 at 10 μM; read-out: Percent Control
# T2 construct: RSK2(Kin.Dom.1-N-terminal); purchased DiscoverX KINOMEscan
# Procedure: as §1
# p38-beta = biological target: T3, p38-beta (Homo sapiens, UniProt Q15759); conditions: LL6 at 10 μM; read-out: Percent Control
# T3 construct: purchased DiscoverX KINOMEscan
# Procedure: as §1
# PAK2 = biological target: T4, PAK2 (Homo sapiens, UniProt Q13177); conditions: LL6 at 10 μM; read-out: Percent Control
# T4 construct: purchased DiscoverX KINOMEscan
# Procedure: as §1
# KIT = biological target: T5, KIT (Homo sapiens, UniProt P10721)
# T5 construct: purchased DiscoverX (KINOMEscan service)
# Procedure: as §1
# EPHA2 = biological target: T6, EPHA2 (Homo sapiens, UniProt P29317); conditions: LL6 at 10 μM; read-out: Percent Control
# T6 construct: purchased DiscoverX KINOMEscan
# Procedure: as §1
# ERBB4 = biological target: T7, ERBB4 (Homo sapiens, UniProt Q15303); conditions: LL6 at 10 μM; read-out: Percent Control
# T7 construct: purchased DiscoverX KINOMEscan
# Procedure: as §1
# PIM1 = biological target: T8, PIM1 (Homo sapiens, UniProt P11309); conditions: LL6 at 10 μM; read-out: Percent Control
# T8 construct: purchased DiscoverX KINOMEscan
# Procedure: as §1
# PAK1 = biological target: T9, PAK1 (Homo sapiens, UniProt Q13153); conditions: LL6 at 10 μM; read-out: Percent Control
# T9 construct: purchased DiscoverX KINOMEscan
# Procedure: as §1
# CHEK1 = biological target: T10, CHEK1 (Homo sapiens, UniProt O14757); conditions: LL6 at 10 μM; read-out: Percent Control
# T10 construct: purchased DiscoverX KINOMEscan
# Procedure: as §1
# TRKA = biological target: T11, TRKA (Homo sapiens, UniProt P04629); conditions: LL6 at 10 μM; read-out: Percent Control
# T11 construct: purchased DiscoverX KINOMEscan
# Procedure: as §1
# BRAF = biological target: T12, BRAF (Homo sapiens, UniProt P15056); conditions: LL6 at 10 μM; read-out: Percent Control
# T12 construct: purchased DiscoverX KINOMEscan
# Procedure: as §1
# BRAF(V600E) = biological target: T13, BRAF(V600E) (Homo sapiens, UniProt P15056, V600E); conditions: LL6 at 10 μM; read-out: Percent Control
# T13 construct: purchased DiscoverX KINOMEscan
# Procedure: as §1
# FAK = biological target: T14, FAK (Homo sapiens, UniProt Q05397); conditions: LL6 at 10 μM; read-out: Percent Control
# T14 construct: purchased DiscoverX KINOMEscan
# Procedure: as §1
# DYRK1B = biological target: T15, DYRK1B (Homo sapiens, UniProt Q9Y463); conditions: LL6 at 10 μM; read-out: Percent Control
# T15 construct: purchased DiscoverX KINOMEscan
# Procedure: as §1
# [2] = biological target: T16, JAK2(JH1domain-catalytic) (Homo sapiens, UniProt O60674); conditions: LL6 at 10 μM; read-out: Percent Control
# T16 construct: JAK2(JH1domain-catalytic); purchased DiscoverX KINOMEscan
# Procedure: as §1
# FGFR3 = biological target: T17, FGFR3 (Homo sapiens, UniProt P22607); conditions: LL6 at 10 μM; read-out: Percent Control
# T17 construct: purchased DiscoverX KINOMEscan
# Procedure: as §1
# PLK1 = biological target: T18, PLK1 (Homo sapiens, UniProt P53350); conditions: LL6 at 10 μM; read-out: Percent Control
# T18 construct: purchased DiscoverX KINOMEscan
# Procedure: as §1
# CSNK1D = biological target: T19, CSNK1D (Homo sapiens, UniProt P48730); conditions: LL6 at 10 μM; read-out: Percent Control
# T19 construct: purchased DiscoverX KINOMEscan
# Procedure: as §1
# MKNK2 = biological target: T20, MKNK2 (Homo sapiens, UniProt Q9HBH9); conditions: LL6 at 10 μM; read-out: Percent Control
# T20 construct: purchased DiscoverX KINOMEscan
# Procedure: as §1
# TSSK1B = biological target: T21, TSSK1B (Homo sapiens, UniProt Q9BXA7); conditions: LL6 at 10 μM; read-out: Percent Control
# T21 construct: purchased DiscoverX KINOMEscan
# Procedure: as §1
# ROCK2 = biological target: T22, ROCK2 (Homo sapiens, UniProt O75116); conditions: LL6 at 10 μM; read-out: Percent Control
# T22 construct: purchased DiscoverX KINOMEscan
# Procedure: as §1
# CSNK1G2 = biological target: T23, CSNK1G2 (Homo sapiens, UniProt P78368); conditions: LL6 at 10 μM; read-out: Percent Control
# T23 construct: purchased DiscoverX KINOMEscan
# Procedure: as §1
# JNK3 = biological target: T24, JNK3 (Homo sapiens, UniProt P53779); conditions: LL6 at 10 μM; read-out: Percent Control
# T24 construct: purchased DiscoverX KINOMEscan
# Procedure: as §1
# IKK-beta = biological target: T25, IKK-beta (Homo sapiens, UniProt O14920); conditions: LL6 at 10 μM; read-out: Percent Control
# T25 construct: purchased DiscoverX KINOMEscan
# Procedure: as §1
# MLK1 = biological target: T26, MLK1 (Homo sapiens, UniProt P80192); conditions: LL6 at 10 μM; read-out: Percent Control
# T26 construct: purchased DiscoverX KINOMEscan
# Procedure: as §1
# PIM3 = biological target: T27, PIM3 (Homo sapiens, UniProt Q86V86); conditions: LL6 at 10 μM; read-out: Percent Control
# T27 construct: purchased DiscoverX KINOMEscan
# Procedure: as §1
# [3] = biological target: T28, TYK2(JH1domain-catalytic) (Homo sapiens, UniProt P29597); conditions: LL6 at 10 μM; read-out: Percent Control
# T28 construct: TYK2(JH1domain-catalytic); purchased DiscoverX KINOMEscan
# Procedure: as §1
# KIT(D816V) = biological target: T29, KIT(D816V) (Homo sapiens, UniProt P10721, D816V); conditions: LL6 at 10 μM; read-out: Percent Control
# T29 construct: purchased DiscoverX KINOMEscan
# Procedure: as §1
# VEGFR2 = biological target: T30, VEGFR2 (Homo sapiens, UniProt P35968); conditions: LL6 at 10 μM; read-out: Percent Control
# T30 construct: purchased DiscoverX KINOMEscan
# Procedure: as §1
# PIM2 = biological target: T31, PIM2 (Homo sapiens, UniProt Q9P1W9); conditions: LL6 at 10 μM; read-out: Percent Control
# T31 construct: purchased DiscoverX KINOMEscan
# Procedure: as §1
# JNK2 = biological target: T32, JNK2 (Homo sapiens, UniProt P45984); conditions: LL6 at 10 μM; read-out: Percent Control
# T32 construct: purchased DiscoverX KINOMEscan
# Procedure: as §1
# PLK4 = biological target: T33, PLK4 (Homo sapiens, UniProt O00444); conditions: LL6 at 10 μM; read-out: Percent Control
# T33 construct: purchased DiscoverX KINOMEscan
# Procedure: as §1
# BTK = biological target: T34, BTK (Homo sapiens, UniProt Q06187); conditions: LL6 at 10 μM; read-out: Percent Control
# T34 construct: purchased DiscoverX KINOMEscan
# Procedure: as §1
# SNARK = biological target: T35, SNARK (Homo sapiens, UniProt Q9H093); conditions: LL6 at 10 μM; read-out: Percent Control
# T35 construct: purchased DiscoverX KINOMEscan
# Procedure: as §1
# CDK9 = biological target: T36, CDK9 (Homo sapiens, UniProt P50750); conditions: LL6 at 10 μM; read-out: Percent Control
# T36 construct: purchased DiscoverX KINOMEscan
# Procedure: as §1
# PIK3C2B = biological target: T37, PIK3C2B (Homo sapiens, UniProt O00750); conditions: LL6 at 10 μM; read-out: Percent Control
# T37 construct: purchased DiscoverX KINOMEscan
# Procedure: as §1
# KIT(V559D,T670I) = biological target: T38, KIT(V559D,T670I) (Homo sapiens, UniProt P10721, T670I/V559D); conditions: LL6 at 10 μM; read-out: Percent Control
# T38 construct: purchased DiscoverX KINOMEscan
# Procedure: as §1
# PKAC-alpha = biological target: T39, PKAC-alpha (Homo sapiens, UniProt P17612); conditions: LL6 at 10 μM; read-out: Percent Control
# T39 construct: purchased DiscoverX KINOMEscan
# Procedure: as §1
# [4] = LL6 at 10 μM, read-out: Percent Control
structure (smiles),measurement,setting,value
Nc1ncnc2c1c(-c1ccc(Cl)cc1)nn2CCn1cc(COc2ccc(Nc3nccc(Nc4cnc5ccccc5c4)n3)cc2)nn1 [LL6],Kd,"IR; IR, 11-point dose response, duplicate",not accurately measurable
same,inhibition at 10 µM,"IR; IR, LL6 at 10 µM",> 65%
same,remaining binding at 10 µM,IR; [4],35%
same,remaining binding at 10 µM,[1],25%
same,remaining binding at 10 µM,p38-beta,65%
same,remaining binding at 10 µM,PAK2,100%
same,Kd,"KIT; KIT, 11-point dose response, duplicate",did not show dose-dependent inhibition curves
same,inhibition at 10 µM,"KIT; KIT, LL6 at 10 µM",> 65%
same,remaining binding at 10 µM,KIT; [4],1.8%
same,remaining binding at 10 µM,EPHA2,100%
same,remaining binding at 10 µM,ERBB4,40%
same,remaining binding at 10 µM,PIM1,98%
same,remaining binding at 10 µM,PAK1,100%
same,remaining binding at 10 µM,CHEK1,100%
same,remaining binding at 10 µM,TRKA,100%
same,remaining binding at 10 µM,BRAF,45%
same,remaining binding at 10 µM,BRAF(V600E),22%
same,remaining binding at 10 µM,FAK,73%
same,remaining binding at 10 µM,DYRK1B,55%
same,remaining binding at 10 µM,[2],100%
same,remaining binding at 10 µM,FGFR3,89%
same,remaining binding at 10 µM,PLK1,100%
same,remaining binding at 10 µM,CSNK1D,14%
same,remaining binding at 10 µM,MKNK2,89%
same,remaining binding at 10 µM,TSSK1B,100%
same,remaining binding at 10 µM,ROCK2,100%
same,remaining binding at 10 µM,CSNK1G2,63%
same,remaining binding at 10 µM,JNK3,42%
same,remaining binding at 10 µM,IKK-beta,100%
same,remaining binding at 10 µM,MLK1,75%
same,remaining binding at 10 µM,PIM3,100%
same,remaining binding at 10 µM,[3],100%
same,remaining binding at 10 µM,KIT(D816V),66%
same,remaining binding at 10 µM,VEGFR2,65%
same,remaining binding at 10 µM,PIM2,100%
same,remaining binding at 10 µM,JNK2,67%
same,remaining binding at 10 µM,PLK4,66%
same,remaining binding at 10 µM,BTK,100%
same,remaining binding at 10 µM,SNARK,100%
same,remaining binding at 10 µM,CDK9,100%
same,remaining binding at 10 µM,PIK3C2B,100%
same,remaining binding at 10 µM,"KIT(V559D,T670I)",80%
same,remaining binding at 10 µM,PKAC-alpha,36%
